Consider two compounds from US5565435A (Kabushiki Kaisha Hayashibara Seibutsu Kagaku Kenkyujo, priority 1991, dated 1996).

A short description of one data set: Solubility in solvent. It is filed as physicochemical. The settings on record: 25° C. water (pH 7).
A short description of data set [1]: Antioxidation activity (hydroperoxide formed by oxidation of linoleic acid, HPLC). The conditions noted are these: 200 ppm, 50° C., light-shielded. The procedure: Ten ml of about one % linoleic acid in ethanol solution, 10 ml of 50 mM phosphate buffer and 5 ml water were mixed, and 5 ml aliquots of the mixture were distributed to 5 ml-flasks. […] A half ml of solution was sampled from each flask at a prescribed time interval, and the sampled solution was subjected to high-performance liquid chromatography (HPLC) to analyze the amount of hydroperoxide which was formed as a result of the oxidation of linoleic acid. The conditions used in the analysis of hydroperoxide were as follows:
Apparatus : WATERS MODEL M-6000A, a pump system commercialized by Japan Waters Ltd., Tokyo, Japan;
Column : ODS-M column, a column commercialized by Shimadzu Techno-Research,Inc., Kyoto, Japan;
Column temperature : 35° C.
Eluate : water:methanol:acetic acid =75:25:0.1
Detection wave length: at 235 nm

In brackets after ≈: the same amount, converted by molar mass.

Consider `O=c1c(O)c(-c2ccc(O)c(O)c2)oc2cc(O)cc(O)c12` [quercetin], for which, in the data set “Solubility in solvent”, the solubility (commonly the concentration that dissolves in the medium under given conditions) was about 2 µg/mL (≈ 6.62 µM).
In the case of `Cc1c(C)c2c(c(C)c1O)CCC(C)(CCCC(C)CCCC(C)CCCC(C)C)O2` (racemic) [dl-α-Tocopherol], the “Relative intensity determined with the peak area corresponding to hydroperoxide, sampling day 0” value in data set [1] (day 0, Control 0.3) is given as 0.3. The “Relative intensity determined with the peak area corresponding to hydroperoxide, sampling day 4” value in data set [1] (day 4, Control 1.5) was found to be 1.1. Also, the “Relative intensity determined with the peak area corresponding to hydroperoxide, sampling day 7” value in data set [1] (day 7, Control 5.3) worked out at 4.5. The “Relative intensity determined with the peak area corresponding to hydroperoxide, sampling day 8” value in data set [1] (day 8, Control 7.1) turned out to be 6.0.
